Measurements: article PMC9598318, “Latent Tuberculosis: A Promising New Compound to Treat Non-Replicating and Intramacrophagic Mycobacteria” (Biomedicines, 2022)
Values after ≈ are worked out from the molar mass of the structure shown. Values joined by “and” are separate entries in the source; they are usually repeats but may differ in a detail not shown here. Equal values may be shown once. Read-outs that look alike come from different tables or passages of the source.

Columns and labels:
[1] = test system: Mycobacterium tuberculosis H37Rv (ATCC 27294), replicating; test: MIC90 against replicating M. tuberculosis (resazurin microtiter assay, REMA); assay type: cell-based; conditions: 7 days; for MIC90: Mycobacterium tuberculosis, 168 h
[2] = test system: non-replicating (NRP) M. tuberculosis; test: LORA, MIC90 against non-replicating M. tuberculosis; assay type: cell-based, Mycobacterium tuberculosis
Description: The LORA method was used to determine the MIC90 of compounds against latent/non-replicating (NRP) mycobacteria. According to Wayne and Sohaskey (2001) [18], under a low-oxygen atmosphere, NRP mycobacteria, containing the plasmid pFCA-ABCDE that encodes a luminescent protein in aerated environments, were plated in a 96-well plate with 100 mL of compounds in a range of 0.39 to 100 μg/mL.

[3] = test system: J774A.1 (ATCC TIB-67) cells; test: Cytotoxicity against macrophage cells (resazurin); assay type: cell-based, mice; conditions: for IC50: Mus musculus
[4] = test system: intramacrophagic M. tuberculosis H37Rv; test: Intramacrophagic activity (J774A.1 macrophages infected with M. tuberculosis H37Rv, CFU count); assay type: cell-based, Mycobacterium tuberculosis; conditions: 5× MIC (6.15 μM), 3 days of exposure
[5] = test system: Salmonella Typhimurium (ATCC 14028); test: Activity spectrum, microdilution; assay type: cell-based; conditions: 24 h, absorbance 600 nm
[6] = test system: Pseudomonas aeruginosa (ATCC 13388); test: Activity spectrum, microdilution; assay type: cell-based; conditions: 24 h, absorbance 600 nm
[7] = test system: Staphylococcus aureus (ATCC 6538); test: Activity spectrum, microdilution; assay type: cell-based; conditions: 24 h, absorbance 600 nm
[8] = test system: Escherichia coli (ATCC 11775); test: Activity spectrum, microdilution; assay type: cell-based; conditions: 24 h, absorbance 600 nm
[9] = test system: Mycobacterium smegmatis mc2155 (ATCC 700084); test: MIC90 against M. smegmatis (resazurin); assay type: cell-based; conditions: for Spectrum activity, M. smegmatis: 2 days, resazurin
[10] = test system: MRC-5 (ATCC CCL-171) cells
[11] = test system: MRC-5 (ATCC CCL-171) cells; test: cells; conditions: Homo sapiens
M. tuberculosis = test: Time-kill curve; assay type: cell-based, Mycobacterium tuberculosis; conditions: MIC and 2× MIC, 15 days
[12] = test system: latent tuberculosis infection (LTBI); conditions: cited from earlier work; for Efficacy in preventing progression to active tuberculosis infection: LTBI patients, monotherapy, ref Huaman et al. (2019) [28]
[13] = Mycobacterium tuberculosis, LORA, low-oxygen
[14] = J774A.1 ATCC TIB-67, 24 h, J774A.1, 24 h
[15] = J774A.1 ATCC TIB-67, 48 h, J774A.1, 48 h
[16] = J774A.1 ATCC TIB-67, 72 h, J774A.1, 72 h

Row | SMILES | MIC90 [1] | MIC90 [2, 13] | IC50 [3, 14] | IC50 [3, 15] | IC50 [3, 16] | Spectrum activity, S. typhimurium [5] | Spectrum activity, P. aeruginosa [6] | Spectrum activity, S. aureus [7] | Spectrum activity, E. coli [8] | Spectrum activity, M. smegmatis [9] | IC50 ([11]; MRC5, 24 h) | IC50 ([11]; MRC5, 48 h) | IC50 ([11]; MRC5, 72 h) | death profile in time-kill curve (bactericidal = 3 log10 CFU/mL decrease) (M. tuberculosis) | Efficacy in preventing progression to active tuberculosis infection [12] | further results
1 | CC1=NN(C(=O)c2ccncc2)C(O)(c2ccccc2)C1 (stereo not drawn) [Hydrazone 14] | 1.23 µM and 0.35 µg/mL | 6.31 µM and 1.77 µg/mL | > 100 µg/mL | 83.3 ± 28.9 µg/mL (≈ 296 µM) | 81.8 ± 31.5 µg/mL (≈ 291 µM) | >100 µg/mL | >100 µg/mL | >100 µg/mL | >100 µg/mL | >25.0 µg/mL | > 100 µg/mL | > 100 µg/mL | > 100 µg/mL |  |  | MIC90 Replicating [1]: 1.23 ± 0.53 µM (≈ 0.346 µg/mL); MIC90 Non-Replicating ([2]; LORA, low-oxygen): 6.31 ± 5.72 µM (≈ 1.78 µg/mL); IS (selectivity index) ([3]; IC50/MIC90, J774A.1, 24 h): >289.02; IS (selectivity index) ([3]; IC50/MIC90, J774A.1, 48 h): 240.88; IS (selectivity index) ([3]; IC50/MIC90, J774A.1, 72 h): 236.46; intramacrophagic inhibition (log reduction vs untreated) [4]: 0.5 log10 CFU/mL; growth inhibition of M. smegmatis [9]: unable to inhibit the mycobacteria growth; cytotoxicity [10]: no detectable cytotoxicity; IS (selectivity index) ([10]; IC50/MIC90, MRC-5, 24 h): >289.02; IS (selectivity index) ([10]; IC50/MIC90, MRC-5, 48 h): >289.02; IS (selectivity index) ([10]; IC50/MIC90, MRC-5, 72 h): >289.02
2 | CNC(C)C1CCC(N)C(OC2C(N)CC(N)C(OC3OCC(C)(O)C(NC)C3O)C2O)O1 (stereo not drawn) [Gentamicin] |  |  |  |  |  | 1.16 ± 0.38 µg/mL | 2.02 ± 0.66 µg/mL | 3.97 ± 2.35 µg/mL | 5.07 ± 0.14 µg/mL |  |  |  |  |  |  | 
3 | NNC(=O)c1ccncc1 [Isoniazid] | 0.44 µM and 0.06 µg/mL | > 300 µM and > 45 µg/mL | > 100 µg/mL | > 100 µg/mL | > 100 µg/mL |  |  |  |  |  | > 100 µg/mL | > 100 µg/mL | > 100 µg/mL | bacteriostatic | 90% | inhibition of non-replicating bacteria ([2]; LORA assay): non-inhibition; MIC90 ([2]; LORA, low-oxygen): >328.13 µM; IS (selectivity index) [3]: >1666.66; IS (selectivity index) [10]: >1666.66; TB activation after LTBI treatment ([12]; share of cases, INH monotherapy): 10%
4 | CO[C@H]1/C=C/O[C@@]2(C)Oc3c(C)c(O)c4c(O)c(c(/C=N/N5CCN(C)CC5)c(O)c4c3C2=O)NC(=O)/C(C)=C\C=C\[C@H](C)[C@H](O)[C@@H](C)[C@@H](O)[C@@H](C)[C@H](OC(C)=O)[C@@H]1C [Rifampicin] | 0.05 µM and 0.04 µg/mL | < 0.36 µM and < 0.3 µg/mL |  |  |  |  |  |  |  | 2.4 ± 1.5 µg/mL |  |  |  | bacteriostatic | ~90% | 
